Experiment: xn = mol fraction of the nth substance listed
Settings: 100 kPa

CCCCCCCC[n+]1ccccc1.[Br-] + CC(C)[C@H](N)C(=O)O + O
Settings	electrical conductivity [S/m]
288.15 K, x2 = 0.0008935, x1 = 0.007418	1.31
288.15 K, x2 = 0.0008938, x1 = 0.007086	1.29
288.15 K, x2 = 0.0008942, x1 = 0.006704	1.26
288.15 K, x2 = 0.0008945, x1 = 0.006295	1.23
288.15 K, x2 = 0.0008949, x1 = 0.005851	1.19
288.15 K, x2 = 0.0008954, x1 = 0.005368	1.14
288.15 K, x2 = 0.0008958, x1 = 0.004839	1.08
288.15 K, x2 = 0.0008964, x1 = 0.004257	1.01
288.15 K, x2 = 0.0008969, x1 = 0.003625	0.906
288.15 K, x2 = 0.0008976, x1 = 0.002914	0.777
288.15 K, x2 = 0.0008982, x1 = 0.002179	0.624
288.15 K, x2 = 0.0008986, x1 = 0.001732	0.519
288.15 K, x2 = 0.0008991, x1 = 0.001237	0.396
288.15 K, x2 = 0.0008995, x1 = 0.0007528	0.27
288.15 K, x2 = 0.001786, x1 = 0.006884	1.26
288.15 K, x2 = 0.001787, x1 = 0.006555	1.23
288.15 K, x2 = 0.001788, x1 = 0.005847	1.16
288.15 K, x2 = 0.001788, x1 = 0.006214	1.19
288.15 K, x2 = 0.001789, x1 = 0.005457	1.12
288.15 K, x2 = 0.00179, x1 = 0.005019	1.08
288.15 K, x2 = 0.001791, x1 = 0.004547	1.02
288.15 K, x2 = 0.001792, x1 = 0.00402	0.951
288.15 K, x2 = 0.001793, x1 = 0.003446	0.852
288.15 K, x2 = 0.001794, x1 = 0.002816	0.736
288.15 K, x2 = 0.001795, x1 = 0.002155	0.601
288.15 K, x2 = 0.001796, x1 = 0.001258	0.39
288.15 K, x2 = 0.001796, x1 = 0.001677	0.494
288.15 K, x2 = 0.001797, x1 = 0.000791	0.274
293.15 K, x2 = 0.0008935, x1 = 0.007404	1.5
293.15 K, x2 = 0.0008938, x1 = 0.007072	1.47
293.15 K, x2 = 0.0008942, x1 = 0.00669	1.43
293.15 K, x2 = 0.0008945, x1 = 0.006282	1.39
293.15 K, x2 = 0.0008949, x1 = 0.005839	1.34
293.15 K, x2 = 0.0008954, x1 = 0.005359	1.29
293.15 K, x2 = 0.0008958, x1 = 0.00483	1.23
293.15 K, x2 = 0.0008964, x1 = 0.004248	1.15
293.15 K, x2 = 0.0008969, x1 = 0.003618	1.03
293.15 K, x2 = 0.0008976, x1 = 0.002909	0.878
293.15 K, x2 = 0.0008982, x1 = 0.002176	0.703
293.15 K, x2 = 0.0008986, x1 = 0.00173	0.585
293.15 K, x2 = 0.0008991, x1 = 0.001235	0.446
293.15 K, x2 = 0.0008995, x1 = 0.0007528	0.302
293.15 K, x2 = 0.001786, x1 = 0.006871	1.44
293.15 K, x2 = 0.001787, x1 = 0.006543	1.4
293.15 K, x2 = 0.001788, x1 = 0.005835	1.32
293.15 K, x2 = 0.001788, x1 = 0.006203	1.36
293.15 K, x2 = 0.001789, x1 = 0.005446	1.28
293.15 K, x2 = 0.00179, x1 = 0.00501	1.23
293.15 K, x2 = 0.001791, x1 = 0.004538	1.16
293.15 K, x2 = 0.001792, x1 = 0.004013	1.08
293.15 K, x2 = 0.001793, x1 = 0.003439	0.962
293.15 K, x2 = 0.001794, x1 = 0.002811	0.835
293.15 K, x2 = 0.001795, x1 = 0.002152	0.681
293.15 K, x2 = 0.001796, x1 = 0.001254	0.441
293.15 K, x2 = 0.001796, x1 = 0.001673	0.556
293.15 K, x2 = 0.001797, x1 = 0.0007892	0.308
298.15 K, x2 = 0.0008935, x1 = 0.007393	1.7
298.15 K, x2 = 0.0008938, x1 = 0.007063	1.66
298.15 K, x2 = 0.0008942, x1 = 0.006681	1.62
298.15 K, x2 = 0.0008945, x1 = 0.006273	1.57
298.15 K, x2 = 0.0008949, x1 = 0.005831	1.52
298.15 K, x2 = 0.0008954, x1 = 0.005351	1.46
298.15 K, x2 = 0.0008959, x1 = 0.004824	1.38
298.15 K, x2 = 0.0008964, x1 = 0.004243	1.28
298.15 K, x2 = 0.0008969, x1 = 0.003614	1.15
298.15 K, x2 = 0.0008976, x1 = 0.002905	0.986
298.15 K, x2 = 0.0008982, x1 = 0.002174	0.784
298.15 K, x2 = 0.0008986, x1 = 0.001726	0.653
298.15 K, x2 = 0.0008991, x1 = 0.001234	0.498
298.15 K, x2 = 0.0008995, x1 = 0.000751	0.336
298.15 K, x2 = 0.001786, x1 = 0.006862	1.62
298.15 K, x2 = 0.001787, x1 = 0.006534	1.58
298.15 K, x2 = 0.001788, x1 = 0.005828	1.49
298.15 K, x2 = 0.001788, x1 = 0.006196	1.54
298.15 K, x2 = 0.001789, x1 = 0.005439	1.44
298.15 K, x2 = 0.00179, x1 = 0.005003	1.38
298.15 K, x2 = 0.001791, x1 = 0.004533	1.31
298.15 K, x2 = 0.001792, x1 = 0.004009	1.21
298.15 K, x2 = 0.001793, x1 = 0.003435	1.08
298.15 K, x2 = 0.001794, x1 = 0.002807	0.937
298.15 K, x2 = 0.001795, x1 = 0.002148	0.761
298.15 K, x2 = 0.001796, x1 = 0.001254	0.492
298.15 K, x2 = 0.001796, x1 = 0.001671	0.623
298.15 K, x2 = 0.001797, x1 = 0.0007892	0.342
303.15 K, x2 = 0.0008935, x1 = 0.007383	1.93
303.15 K, x2 = 0.0008938, x1 = 0.007052	1.88
303.15 K, x2 = 0.0008942, x1 = 0.006672	1.82
303.15 K, x2 = 0.0008946, x1 = 0.006264	1.77
303.15 K, x2 = 0.000895, x1 = 0.005822	1.7
303.15 K, x2 = 0.0008954, x1 = 0.005343	1.63
303.15 K, x2 = 0.0008959, x1 = 0.004817	1.54
303.15 K, x2 = 0.0008964, x1 = 0.004238	1.43
303.15 K, x2 = 0.0008969, x1 = 0.003609	1.28
303.15 K, x2 = 0.0008976, x1 = 0.002902	1.1
303.15 K, x2 = 0.0008982, x1 = 0.00217	0.864
303.15 K, x2 = 0.0008986, x1 = 0.001725	0.717
303.15 K, x2 = 0.0008991, x1 = 0.001232	0.553
303.15 K, x2 = 0.0008995, x1 = 0.000751	0.372
303.15 K, x2 = 0.001786, x1 = 0.006852	1.81
303.15 K, x2 = 0.001787, x1 = 0.006525	1.77
303.15 K, x2 = 0.001788, x1 = 0.00582	1.67
303.15 K, x2 = 0.001788, x1 = 0.006185	1.72
303.15 K, x2 = 0.001789, x1 = 0.005432	1.61
303.15 K, x2 = 0.00179, x1 = 0.004996	1.54
303.15 K, x2 = 0.001791, x1 = 0.004527	1.46
303.15 K, x2 = 0.001792, x1 = 0.004004	1.35
303.15 K, x2 = 0.001793, x1 = 0.003429	1.21
303.15 K, x2 = 0.001794, x1 = 0.002804	1.04
303.15 K, x2 = 0.001795, x1 = 0.002146	0.845
303.15 K, x2 = 0.001796, x1 = 0.00167	0.691
303.15 K, x2 = 0.001797, x1 = 0.0007874	0.379
303.15 K, x2 = 0.001797, x1 = 0.001252	0.546
308.15 K, x2 = 0.0008936, x1 = 0.00737	2.19
308.15 K, x2 = 0.0008938, x1 = 0.00704	2.13
308.15 K, x2 = 0.0008942, x1 = 0.006659	2.06
308.15 K, x2 = 0.0008946, x1 = 0.006254	1.99
308.15 K, x2 = 0.000895, x1 = 0.005812	1.92
308.15 K, x2 = 0.0008954, x1 = 0.005334	1.81
308.15 K, x2 = 0.0008959, x1 = 0.004808	1.71
308.15 K, x2 = 0.0008964, x1 = 0.00423	1.57
308.15 K, x2 = 0.0008969, x1 = 0.003602	1.42
308.15 K, x2 = 0.0008976, x1 = 0.002896	1.19
308.15 K, x2 = 0.0008982, x1 = 0.002167	0.943
308.15 K, x2 = 0.0008986, x1 = 0.001721	0.784
308.15 K, x2 = 0.0008991, x1 = 0.00123	0.608
308.15 K, x2 = 0.0008995, x1 = 0.0007492	0.414
308.15 K, x2 = 0.001786, x1 = 0.006839	2.07
308.15 K, x2 = 0.001787, x1 = 0.006512	2.02
308.15 K, x2 = 0.001788, x1 = 0.00581	1.87
308.15 K, x2 = 0.001788, x1 = 0.006175	1.95
308.15 K, x2 = 0.001789, x1 = 0.005421	1.79
308.15 K, x2 = 0.00179, x1 = 0.004987	1.71
308.15 K, x2 = 0.001791, x1 = 0.004518	1.62
308.15 K, x2 = 0.001792, x1 = 0.003997	1.48
308.15 K, x2 = 0.001793, x1 = 0.003424	1.34
308.15 K, x2 = 0.001794, x1 = 0.002798	1.14
308.15 K, x2 = 0.001795, x1 = 0.002143	0.914
308.15 K, x2 = 0.001796, x1 = 0.001666	0.743
308.15 K, x2 = 0.001797, x1 = 0.0007874	0.427
308.15 K, x2 = 0.001797, x1 = 0.001249	0.603

From the CheMixHub ionic liquid set
